Positions of bridges follow the written chain, without caps; N, C: chain ends. No end group written: not given here.
Columns and labels:
HUVEC = test: Capillary (pseudo-)tube formation on Matrigel; assay type: cell-based, human
Description: Figure 2. NC1(XIX) and F4 inhibit endothelial cell in vitro pseudotube formation. 50,000 HUVEC were seeded in Matrigel coated well of a 48 well-plate and incubated with or without 40 μM NC1(XIX) or F4. Pseudotube formation was observed and photographed under an inverted microscope after 8 hours (a). The number of segments, of nodes and the total length of pseudotubes were quantified by the ImageJ software, using the Angiogenesis Analyzer tool (b). The values are the means ± SD (n = 8 replicates). *** p < 0.001). The experiment was repeated three times (N = 3)
Human Umbilical Vein Endothelial Cells (HUVEC) (Ref C-12253) were purchased from Promocell. They were grown in Endothelial Cell Growth Medium (ECGM) (Promocell, Ref C-22110: Basal medium supplemented with 0.02 mL/mL Fetal Calf Serum, 0.004 mL/mL Endothelial Cell Growth Supplement, 0.1 ng/mL Epidermal Growth Factor (recombinant human), 1 ng/mL Basic Fibroblast Growth Factor (recombinant human), 90 μg/mL Heparin, 1 μg/mL Hydrocortisone) at +37°C in a humid atmosphere containing 5% CO2. PromoCell Detach Kit was used for the detachment of HUVEC according to the manufacturer’s protocols (Promocell, ref C-41200).
The ability of HUVEC to form pseudo-tubes was investigated on Matrigel (Corning, ref 356237). Matrigel was loaded into 48-well plate and allowed to polymerize at +37°C for 2 h. 50,000 HUVEC suspended in Basal media supplemented with 0.004 mL/mL Endothelial Cell Growth Supplement, 90 μg/mL Heparin, 1 μg/mL Hydrocortisone with or without 40 μM NC1(XIX) or F4 were seeded into each well. Plates were incubated at +37°C in a humid atmosphere containing 5% CO2, 95% for 8 h. The formation of the capillary network was then imaged under an inverted light microscope. Quantitative evaluation of the capillary network was performed using the angiogenesis analyzer tool of ImageJ analysis software. The number of nodes, of segments and the total length of the capillary network were determined.

αvβ3 integrin = test: Solid phase assay, direct binding to αvβ3; set-up: species or system human; details: solid phase assays
Excerpt: Figure 5. F4 directly binds to αvβ3 and α5β1 integrins. Direct interaction between αvβ3 or α5β1 integrin and F4 was studied using solid phase assays as described in the material and method section. The F4 peptide was biotinylated to allow its detection using the streptavidin-peroxidase complex. Different conditions were used. (a-b) The amounts of coated αvβ3 (a) or α5β1 integrin (b) were increased while biotinylated F4 peptide was kept constant. (c-d) The concentration of biotinylated F4 peptide was increased while coated amounts of αvβ3 (c) or α5β1 (d) integrins were kept constant. (e-f) Competitive assays were performed using increasing concentrations of F4 peptide while biotinylated-F4 peptide and αvβ3 (e) or α5β1 (f) integrins were kept constant. […]
(§1) Wells of a 96-well plate were coated with α5β1 (ref. 3230-A5-050, R&D systems) and/or αvβ3 integrin (ref. 3050-AV-050, R&D systems) at different concentrations ranging from 26 × 10^−7 mol/L to 0.1 × 10^−7 mol/L (100 μL per well in PBS). […] The intensity of the yellow coloration was measured at 450 nm with an LB940 spectrophotometer (Berthold Technologies).
The optimum integrin amount for the coating was determined using the above protocol and the optimum ligand concentration was sought using different dilutions of the biotinylated-F4 peptide ranging from 20.8 × 10^−4 to 0.16 × 10^−4 mol/L.

α5β1 integrin = test: Solid phase competition assay with biotinylated-F4, α5β1; assay type: binding, human; details: unlabeled F4, molar ratio 1/0 to 1/125, integrin coated at 26 × 10^−7 mol/L, 90 min, room temperature, N = 2
Excerpt: Figure 5. F4 directly binds to αvβ3 and α5β1 integrins. Direct interaction between αvβ3 or α5β1 integrin and F4 was studied using solid phase assays as described in the material and method section. The F4 peptide was biotinylated to allow its detection using the streptavidin-peroxidase complex. Different conditions were used. (a-b) The amounts of coated αvβ3 (a) or α5β1 integrin (b) were increased while biotinylated F4 peptide was kept constant. (c-d) The concentration of biotinylated F4 peptide was increased while coated amounts of αvβ3 (c) or α5β1 (d) integrins were kept constant. (e-f) Competitive assays were performed using increasing concentrations of F4 peptide while biotinylated-F4 peptide and αvβ3 (e) or α5β1 (f) integrins were kept constant. The solid phase assays were repeated twice (N = 2; n = 2)
as §1, with “PBS). The 96-well plate was left overnight at room temperature. The coating was then blocked with TBS containing 5% nonfat dry milk, 1 mM MgCl2 and 1 mM CaCl2 for 2 h at room temperature.” for “PBS).”, “Technologies). […]” for “Technologies).”

[1] = 40 µM, 8 h, 50,000 HUVEC on Matrigel, ImageJ Angiogenesis Analyzer, p < 0.001 for NC1(XIX) and F4, n = 8, N = 3

For “CNPEDCLYPVSHAHQR (disulfide 1-6 (inferred)) [F4, collagen XIX-derived peptide, released by plasmin from type XIX collagen]”, the “decrease of the number of nodes vs control” value (HUVEC; [1]) was 77%, the “decrease of the number of segments vs control” value (HUVEC; [1]) was 52% and the “decrease of the total length of capillary tubes vs control” value (HUVEC; [1]) was 49%. For the same sequence, the “inhibition of capillary network, F4 compared with NC1(XIX)” value (HUVEC; 40 µM, 8 h, HUVEC on Matrigel) was “stronger inhibition of the number of nodes, segments and of the total length of capillary network than NC1(XIX) peptide”, the “inhibition of pseudo-tube formation” value (HUVEC; 40 µM, 8 h, HUVEC on Matrigel, compared to control) was “strongly inhibited pseudo-tube formation” and the “inhibition of VEGF-induced pseudo-tube formation” value (HUVEC; endothelial cells on Matrigel (abstract)) was “inhibited VEGF-induced pseudo-tube formation”. The “anti-angiogenic effect on pseudo-tube formation, F4 compared with NC1(XIX) (discussion)” value (HUVEC; in vitro) was “even greater than the whole NC1(XIX) domain”, the “direct binding to αvβ3 (conclusion)” value (αvβ3 integrin) was “binds to both αvβ3 and α5β1 integrins in a direct manner” and the “competition with biotinylated-F4 binding to α5β1” value (α5β1 integrin) was “decreased consequently”.

From paper PMC8312610, “F4, a collagen XIX-derived peptide, inhibits tumor angiogenesis through αvβ3 and α5β1 integrin interaction” (Cell Adhesion & Migration, 2021)
